Results: US12280026B2, “Use of repirinast in the prophylaxis or treatment of renal fibrosis or kidney disease” (ALGERNON PHARMACEUTICALS INC., priority 2018, dated 2025)
Entries after “also recorded” stand apart in the source; their conditions may differ. Marks after values point to notes of the source that are not given here.

Columns and labels:
[1] = Example 1: UUO mice, mean body weight change following surgery; assay type: in vivo; settings: Example 1, mostly post-surgical day 14, male C57BL/6 mice, PO QD days 1-14, doses of Table 1
Procedure: Male 9-12 week old C57BL/6 mice of 23-25 grams body weight were used. All mice were acclimated for a minimum of 5 days prior to the start of the study and housed individually in microisolators throughout the study in a 12:12 light-dark cycle on a standard maintenance mouse chow diet (Harlan Teklad 2018) with food and water given ad libitum. Prior to surgery, all mice were weighed for baseline body weight.
The UUO surgical intervention was performed according to previously described methods known in the art (Le Meur Y et al., Macrophage accumulation at a site of renal inflammation is dependent on the M-CSF/c-fms pathway, J Leukocyte Biol., 72:530-537; 2002).
All mice were first anesthetized by intraperitoneal injection with a rodent cocktail (ketamine 10 mg/mL and Xyaline 1 mg/mL) in normal saline (10 μL/g body weight). Pedal reflex and movement of the vibrissae were used to determine the state of unconsciousness. A state of unconsciousness was confirmed after a period of about 5 minutes in all animals. All mice were then shaved on the left side of the abdomen. The shaved area was first swabbed with iodine and then swabbed with alcohol. A vertical incision was made through the skin with a #22 scalpel and the skin was then retracted. A further incision of about 2.5 cm was then made through the peritoneum avoiding any major blood vessels. The peritoneum was then retracted and the left kidney was exposed.
The left kidney was then brought to the surface by hooking the ureter directly beneath the kidney with sterile forceps and gently manipulating the kidney upward. The ureter was ligated at two points directly below the kidney with 5-0 surgical silk with excess suture cut away and discarded post-ligation. The kidney was then gently placed back to its correct anatomical position and the abdomen was lavaged with 1 mL sterile saline to replenish fluid loss. The peritoneum and then skin were sutured with 5-0 Mersilene, and the incision site was gently wiped with iodine. All mice were then placed individually in clean cages that were set on top of a thermal blanket until recovery at about 30-60 minutes later. In some examples, sham surgery was performed as a control by following all steps of the UUO surgical intervention procedure except ligation.
Following surgery, the mice were divided into 14 individual study groups of 8 mice each and, following post-surgical recovery, administered a once-daily oral treatment for 14 days. The mice in 12 of the 14 study groups (hereafter known as “treatment groups”) had all received the UUO surgical ligation and were treated individually with a distinct pharmacologic compound as set out in Table 1. The mice in 2 of the 14 study groups were treated individually with a pharmaceutically acceptable vehicle with no active ingredient. The pharmaceutically acceptable vehicle in all groups was 0.5% carboxymethyl cellulose (CMC). All mice were sacrificed with CO2 on post-surgical day 15.
The dose selected for the animal studies was determined by taking the maximum known human daily dose, dividing by the average weight of an adult (˜60-70 kg) to get a human mg/kg dose. […]
Body weight: The body weights were measured on days 1, 2, 5, 8, 10 and 14 using a laboratory balance.
Body weights were measured on post-surgical days 1, 2, 5, 8, 10 and 14 as previously described. The mean body weight change of each study group was calculated using the body weight average of all mice in each study group.

[2] = Example 2: UUO mice, mean body weight change following surgery; assay type: in vivo, C57BL/6 mice; settings: for Mean Body Weight Change Following Surgery, Day 1 / Mean Body Weight Change Following Surgery, Day 4 / Mean Body Weight Change Following Surgery, Day 7 / Mean Body Weight Change Following Surgery, Day 10 / Mean Body Weight Change Following Surgery, Day 14: UUO, female C57BL/6 mice, PO QD days 1-14; for Body weight course after surgery, in words: Example 2
Procedure: (§1) In this example, healthy young female C57BL/6 mice were used for the study. At the commencement of the study, mice were between 9-12 weeks of age, weighing 23-25 g. All the mice were obtained from Charles River Laboratories.
(§2) The mice were maintained in a controlled environment with a temp 70-72° F., humidity 30-70%, with a photo cycle of 12 hours of light and 12 hours of dark. They were provided with Harlan Teklad 2018 standard maintenance mouse chow diet and drinking water ad libitium.
(§3) After five days of acclimatization, the mice were grouped according to their body weight. There were ten groups of ten mice each. Nine groups of ten mice each underwent UUO as described above and the other group of ten mice underwent a sham procedure to serve as a no-surgery control.
(§4) Following surgery, the mice were divided into 10 individual study groups of 10 mice each and, following post-surgical recovery, administered a once-daily oral treatment for 14 days. The mice in 8 of the 10 study groups had all received the UUO surgical ligation and were treated individually with a distinct pharmacologic compound as set out in Table 6. The mice in 2 of the 10 study groups were treated individually with a pharmaceutically acceptable vehicle with no active ingredient. The pharmaceutically acceptable vehicle in all groups was 0.5% carboxymethyl cellulose (CMC). All mice were sacrificed with CO2 on post-surgical day 15.
(§5) The dose selected for the animal studies was determined by taking the maximum known human daily dose, dividing by the average weight of an adult (˜60-70 kg) to get a human mg/kg dose. That number was multiplied by 12 to convert to a mouse dose based on conventional dosing tables. See Nair and Jacob, J Basic Clin Pharm March 2016-May 2016, 7(2):27-31.
Body weight: The body weights were measured on days 1, 4, 7, 10 and 14 using a laboratory balance.
Body weights were measured on post-surgical days 1, 4, 7, 10 and 14 as previously described. The mean body weight change of each study group was calculated using the body weight average of all mice in each study group.

[3] = test system: C57BL/6 mice with UUO surgical ligation; assay: Example 2: UUO mice, renal function evaluation (plasma BUN, creatinine); assay type: in vivo; settings: for BUN / Creatinine: plasma at sacrifice day 15, group mean, UUO, female C57BL/6 mice, PO QD days 1-14
Procedure: as §1, §2, §3, §4, §5
Serum collection: A blood sample was then collected from all mice and plasma analyzed for urea nitrogen and creatinine. Plasma was stored at −80° C. for possible future analysis.
(§6) The data are presented as the mean obtained from Microsoft Excel or GraphPad Prism version 5.00 for Windows (GraphPad Software, San Diego California USA). Data were analyzed using two-way ANOVA using Bonferroni and Tamhane post-tests. Differences between groups were considered significant at p<0.05.
Renal Function Evaluation: Renal function and disease progression was evaluated by BUN (blood urea nitrogen) as previously described. The BUN of each study group consisted of the BUN average of all mice in each study group.

[4] = test system: C57BL/6 mice with UUO surgical ligation; assay: Example 2: UUO mice, kidney weight evaluation; assay type: in vivo; settings: group mean, UUO, female C57BL/6 mice, PO QD days 1-14; for Drained Left Kidney: ligated kidney drained; for Excised Left Kidney: ligated kidney; for Right Kidney (g): unligated kidney
Procedure: as §1, §2, §3, §4, §5
Kidney weight: The UUO was then examined in situ to ensure that the surgical ligation ties remained patent. Both the ligated (UUO) and non-ligated kidneys were removed for analysis. Weights of both kidneys were measured using a laboratory balance.
as §6
Kidney Weight Evaluation: Kidney weight, which indicates functional and pathological changes in the kidney, was evaluated by measuring the weight of both the ligated (UUO) and non-ligated kidneys as previously described. The ligated and non-ligated kidney weights of each study group consisted of the respective kidney weight averages of all mice in each study group.

[5] = mg/kg: Telmisartan 3, Bemithyl 200, Repirinast 30, Telmisartan+Bemithyl 3+200, Telmisartan+Repirinast 3+30, Cenicriviroc 40, Bromantane 40

Compound: Cc1ccc2c([nH]c(=O)c3c(=O)cc(C(=O)OCCC(C)C)oc32)c1C [Repirinast, 3-methylbutyl 7,8-dimethyl-4,5-dioxo-5,6-dihydro-4H-pyrano[3,2-c]quinoline-2-carboxylate]
- Mean body weight change, comparison with control groups, in words [1]: greater decrease in body weight
- Mean Body Weight Change Following Surgery, Day 1 ([2]; Repirinast 90 mg/kg): 0 g
- Mean Body Weight Change Following Surgery, Day 1 [2, 5]: 0 g
- Mean Body Weight Change Following Surgery, Day 4 ([2]; Repirinast 90 mg/kg): 0.31 g
- Mean Body Weight Change Following Surgery, Day 4 [2, 5]: 0.34 g
- Mean Body Weight Change Following Surgery, Day 7 ([2]; Repirinast 90 mg/kg): 0.60 g
- Mean Body Weight Change Following Surgery, Day 7 [2, 5]: 0.35 g
- Mean Body Weight Change Following Surgery, Day 10 ([2]; Repirinast 90 mg/kg): 0.86 g
- Mean Body Weight Change Following Surgery, Day 10 [2, 5]: 0.83 g
- Mean Body Weight Change Following Surgery, Day 14 ([2]; Repirinast 90 mg/kg): 1.08 g
- Mean Body Weight Change Following Surgery, Day 14 [2, 5]: 0.86 g
- Body weight course after surgery, in words ([2]; Repirinast 90 mg/kg PO QD): no initial decrease in body weight; also recorded: appeared to reverse the negative effects of UUO on body weight gain
- Body weight course after surgery, in words ([2]; mg/kg PO QD: Repirinast 30, Bemithyl 200, Bromantane 40, Telmisartan+Bemithyl 3+200): no initial decrease in body weight
- Level of BUN compared to vehicle, in words ([3]; Example 2, Repirinast 90 mg/kg PO QD): significant reductions in the level of BUN compared to vehicle; also recorded: reduction in BUN compared to vehicle
- Level of BUN compared to vehicle or other agents, in words ([3]; Example 2, mg/kg PO QD: Telmisartan 3, Bemithyl 200, Repirinast 30, Telmisartan+Bemithyl 3+200, Telmisartan+Repirinast 3+30, Cenicriviroc 40, Bromantane 40): significant reductions in the level of BUN compared to vehicle
- BUN ([3]; * significant vs vehicle Bonferroni, # Tamhane (p<0.05), mg/kg: Telmisartan 3, Bemithyl 200, Repirinast 30, Telmisartan+Bemithyl 3+200, Telmisartan+Repirinast 3+30, Cenicriviroc 40, Bromantane 40): 18.5*# mg/dL
- BUN ([3]; Repirinast 90 mg/kg): 17.6*# mg/dL
- Creatinine ([3]; Repirinast 90 mg/kg): 0.20 mg/dL
- Creatinine [3, 5]: 0.20 mg/dL
- Drained Left Kidney ([4]; Repirinast 90 mg/kg): 0.1648 g
- Drained Left Kidney [4, 5]: 0.1808 g
- Excised Left Kidney ([4]; Repirinast 90 mg/kg): 0.3681 g
- Excised Left Kidney [4, 5]: 0.412 g
- Right Kidney (g) ([4]; Repirinast 90 mg/kg): 0.1378* g
- Right Kidney (g) [4, 5]: 0.1468* g
